Measurements as given in the supplement of paper PMC10307832.

Tests used:
Assay in all cases: relative viability (nuclei count vs DMSO), 5 days (fraction); higher = more cells survive
[1] = compound: C1/C(=C\C2=CC=CS2)/C(=O)/C(=C/C3=CC=CS3)/C1 + COc1cc2c(Oc3ccc(NC(=O)C4(C(=O)Nc5ccc(F)cc5)CC4)cc3F)ccnc2cc1OCCCN1CCOCC1 [Foretinib] (partner 0.25 µM)
Method in brief: (§1)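 Cells from lung cancer lines were seeded into 1536-well plates and, one day later, dosed by pin tool. Treatments were either a single drug or a fixed dose of an anchor drug with five library-drug doses (not always all listed) in √10 steps. After 5 days, nuclei were stained in a one-step fixation (final 0.05% Triton X-100, 1% formaldehyde, 1 ug/ml Hoechst) and counted on 4× images, and relative viability is the treated-to-vehicle nuclei ratio, as the median of duplicate plates.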

[2] = compound: C1=CC(=CC=C1C2=CC(=C(S2)NC(=O)N)C(=O)N)F [TPCA-1] + Cc1nc(NC(=O)N2CCC[C@H]2C(N)=O)sc1-c1ccnc(C(C)(C)C(F)(F)F)c1 [Alpelisib] (partner 2 µM)
Method in brief: as §1

[3] = compound: C[C@]12O[C@H](C[C@]1(O)CO)n1c3ccccc3c3c4c(c5c6ccccc6n2c5c31)CNC4=O [Lestaurtinib] + CC(=O)Nc1cccc(-n2c(=O)n(C3CC3)c(=O)c3c(Nc4ccc(I)cc4F)n(C)c(=O)c(C)c32)c1 [Trametinib] (partner 0.02 µM)
Method in brief: as §1

[4] = compound: C1=CC(=CC=C1C2=CC(=C(S2)NC(=O)N)C(=O)N)F [TPCA-1] + CC1(C)CCC(c2ccc(Cl)cc2)=C(CN2CCN(c3ccc(C(=O)NS(=O)(=O)c4ccc(N[C@H](CCN5CCOCC5)CSc5ccccc5)c(S(=O)(=O)C(F)(F)F)c4)cc3)CC2)C1 [Navitoclax] (partner 0.5 µM)
Method in brief: as §1

Cell Line	relative viability ([1]; first compound 0.2 µM)	relative viability ([1]; first compound 0.6325 µM)	relative viability ([1]; first compound 2 µM)	relative viability ([1]; first compound 6.325 µM)	relative viability ([1]; first compound 20 µM)	relative viability ([2]; first compound 0.04 µM)	relative viability ([2]; first compound 0.1265 µM)	relative viability ([2]; first compound 0.4 µM)	relative viability ([2]; first compound 1.265 µM)	relative viability ([2]; first compound 4 µM)	relative viability ([3]; first compound 0.01581 µM)	relative viability ([3]; first compound 0.1581 µM)	relative viability ([3]; first compound 0.5 µM)	relative viability ([4]; first compound 0.04 µM)	relative viability ([4]; first compound 0.1265 µM)	relative viability ([4]; first compound 0.4 µM)	relative viability ([4]; first compound 1.265 µM)	relative viability ([4]; first compound 4 µM)	relative viability ([3]; first compound 0.005 µM)	relative viability ([3]; first compound 0.05 µM)
NCI-H1563	0.952	1.1	0.968	0.895	0.93	0.976	0.932	0.897	0.993	0.911										
NCI-H1623	0.863	0.907	0.871	0.786	0.821															
NCI-H1648											0.728	0.458	0.367							
NCI-H1650	1.15	1.16	1.41	1.12	1.18						0.66	0.687	0.335	1.3	1.05	1.27	1.09	1.1	0.516	0.656
NCI-H1703	0.381	0.451	0.33	0.257	0.337	0.336	0.3	0.304	0.233	0.207				1.18	0.955	1.12	0.774	0.807		
NCI-H1792						0.733	0.714	0.646	0.675	0.389	0.516	0.386	0.244	0.714	0.622	0.677	0.621	0.279	0.429	0.339
NCI-H2342	1.08	1.28	1.17	0.989	1.1						0.817	0.849	0.971						0.836	0.841
SW 900	0.823	0.817	0.804	0.9	1.16						0.86	1.16	0.876						0.959	0.691
